Measurements: patent publication US20160082133A1, “CHEMICAL EXCHANGE SATURATION TRANSFER (CEST) BASED MRI USING REPORTER GENES AND SUBSTRATES AND METHODS THEREOF” (The Johns Hopkins University, priority 2013, published 2016)

Legend:
[1] = Quantification of exchange rates (QUESP, Bloch equation fitting); type: physicochemical; settings: 11.7 T, pH 7.4, 37° C.
Protocol: Exchange rates were quantified with the saturation power dependent CEST approach (QUESP) and Bloch equation fitting (McMahon et al., Magn. Res. Med. 2006, 55, 836). For each sample, the MTRasym was measured at the imino resonance frequency for CEST saturation fields of 43, 85, 128, 170, 213, 255, 340, and 426 Hz while the saturation pulse duration was kept constant at 4000 ms. The Bloch equations were then fit numerically to these MTRasym values using MATLAB (Mathworks), and the exchange rates (kex, s^−1) were determined from the fits. Errors (95% confidence limits) were estimated using the F statistic.

[2] = In vitro CEST-MRI of thymidine analogues at 11.7 T; type: physicochemical; settings: pH 7.4, 37° C.
Protocol: All compounds were dissolved at a concentration of 20 mM in phosphate-buffered saline (PBS) (pH=7.4) and placed in microcapillaries, as described previously.^17 CESTMRI experiments were performed on a vertical 11.7 T scanner (Bruker Avance system) at 37° C. A modified RARE sequence (TR/TE=10 000/9.4 ms; RARE factor=16; 1 mm slice thickness; FOV=11×11 mm^2; matrix size=64×32; resolution=0.17×0.34 mm^2; and NA=2) including a magnetization transfer (MT) module ([…]) was used to acquire CEST-weighted images from −8 to +8 ppm with increments of 0.2 ppm around the water resonance, which was assigned to be at 0 ppm. Pixel-based B0 correction was used as described before using the same parameters as above except for TR=1500 ms and B1/tsat=21 Hz/500 ms, with a sweep range from −2 to +2 ppm (0.1 ppm steps). Data processing was performed using custom-written scripts in MATLAB (Mathworks). Mean CEST spectra were plotted from an ROI for each sample, after B0 correction. MTRasym=100×(S^−Aω−S^AωA/^‘−’0)/3 was computed at different offsets Aω.

[3] = In vitro CEST imaging on a clinical 3 Tesla MRI scanner; type: physicochemical; settings: 3.0 T, 20 mM, pH 7.4, room temperature
Protocol: Experiments were performed on a 3.0 Tesla Philips Achieva system (Philips Healthcare, Best, The Netherlands) using a body coil for transmit and a small animal solenoid coil for reception. CEST data were collected using a pulsed acquisition scheme (Jones, C. K. et al. Magn Reson Med 2011) with a 25 ms, 164 Hz frequency selective saturation pulse followed by a partial EPI readout (EPI factor 3). This TR interval was repeated until a 3D volume was acquired with 5 slices (slice thickness of 10 mm) across a field of view of 48×45 mm^2 (in plane resolution of 0.75 mm×0.9 mm) The acquisition per irradiation frequency consisted of TR/TE=65/5.5 ms and 4 averages. A total of 64 images were acquired which included an unsaturated volume and 63 saturated volumes with equally spaced frequency offsets between ±10 ppm (relative to the water frequency). The total acquisition time was 26 min 38 s. The experiments for B0 correction (Kim, M. et al. Magn Reson Med 2009, 61, 1441) were run the same except that 40 Hz frequency selective saturation pulse was used. Data processing was performed as described herein.

[4] = cited from earlier work
[5] = at 5 ppm for 20 nM agent (so in the source)

C[C@H]1CN([C@H]2C[C@H](O)[C@@H](CO)O2)C(=O)NC1=O [Compound 1, (5S)-5,6-dihydrothymidine]
kex of the imino proton [1]: 0.8±0.2×10^3 s^−1
kex, quantified exchange rates of imino and water protons ([1]; 5 ppm for 1-3, 6 ppm for dT): 0.8 ± 0.2 ×10^3 s^−1
MTRasym (8.5 Hz) [2, 5]: 6%
MTRasym (170 Hz) [2, 5]: 18%
MTRasym (213 Hz) [2, 5]: 19%
MTRasym (128 Hz) ([2]; at 5 ppm for 20 mM agent): 14%
MTRasym value at 5 ppm, higher compared to dT [3]: 40%
pKa values of the imino proton obtained from the literature [4]: 11.6^43
